Data on five compounds can be found in ChEMBL document CHEMBL2021871, “The effects of diketopiperazines from Callyspongia sp. on release of cytokines and chemokines in cultured J774A.1 macrophages” (2012).

Active and inactive are the calls of the source. The rule behind the calls is not given here.

Holding throughout (assay type): functional
For assay [1], the system named is J774.A1. The assay is described as follows: Induction of IFN-gamma secretion in mouse J774A1 cells at 5 ug/mL after 48 hrs by ELISA relative to control.
Assay [2] has as its system J774.A1. In words: Induction of MCP-1 secretion in mouse J774A1 cells at 5 ug/mL after 48 hrs by ELISA relative to control.
Assay [3] has as its system J774.A1. The assay is described as follows: Induction of TNF-alpha secretion in mouse J774A1 cells at 5 ug/mL after 48 hrs by ELISA relative to control.
For assay [4], the system named is J774.A1. The assay is described as follows: Induction of IL10 secretion in mouse J774A1 cells at 5 ug/mL after 48 hrs by ELISA relative to control.
The subject of assay [5] is J774.A1. The assay is described as follows: Reduction of TNF-alpha secretion in mouse J774A1 cells at 5 ug/mL after 48 hrs by ELISA relative to control. Set-up: scale not given: the % may be the effect or the level left.

With `O=C1NCC(=O)N2CCC[C@@H]12` [CYCLO(PROLYLGLYCYL)], the “fold change (FC)” value in assay [1] worked out at 3.5; in assay [2], 1.86; in assay [4] it was 1.29. The result in assay [3] was inactive.
For the compound `C[C@@H]1NC(=O)[C@@H]2C[C@@H](O)CN2C1=O`, the “fold change (FC)” value in assay [1] was found to be 4.49; in assay [2], 3.09; in assay [3] it was 1.12; in assay [4] it was 1.65.
Turning to `C[C@@H]1NC(=O)[C@@H]2CCCN2C1=O`, the “fold change (FC)” value worked out at 1.36 in assay [1], 1.47 in assay [2] and 1.56 in assay [4].
`CC(C)C[C@@H]1NC(=O)[C@H](Cc2ccc(O)cc2)NC1=O`: the results for the “fold change (FC)” value in assay [1] and in assay [2] were 1.82 and 2.24, respectively. Also, in assay [5], the Activity was 88.3%. Further, the outcome in assay [3] and in assay [4] was inactive.
Regarding `O=C1N[C@@H](Cc2ccccc2)C(=O)N2CCC[C@@H]12`, the figures for the “fold change (FC)” value in assay [1], in assay [2] and in assay [4] were 1.62, 2.05 and 1.54, respectively. Also, in assay [3], the outcome was inactive.
